Laboratory results: US20110268818A1, “NGAL-BINDING SIDEROPHORES AND USE THEREOF TO TREAT IRON DEFICIENCY AND IRON OVERLOAD” (priority 2008, published 2011)
Structures can show the parent of a compound that is named as a salt.

How the values were obtained:
NGAL = biological target: T1, NGAL (Homo sapiens, UniProt P80188); assay: NGAL:siderophore:iron binding assay (retention on 10 kDa filter); settings: for NGAL-siderophore-Fe binding activity (in words): iron retention by NGAL on filter
T1 construct: made in house; host or cells: E. coli BL-21
T1 sequence (P80188 21-198): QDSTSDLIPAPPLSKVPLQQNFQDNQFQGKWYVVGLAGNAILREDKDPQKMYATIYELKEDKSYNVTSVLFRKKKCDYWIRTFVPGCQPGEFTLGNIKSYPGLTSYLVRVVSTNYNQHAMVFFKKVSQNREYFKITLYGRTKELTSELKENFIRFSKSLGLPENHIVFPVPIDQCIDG
Method: NGAL:Siderophore:Iron Binding Assays. […] After 60 minutes, the mixture was washed 3 times (YM-10) or alternatively gel filtered (PD-10, GE Biosciences). Ent loaded NGAL served as a positive control. Ferric citrate (1 mM) or Ent:iron (500 μM) served as competitors of ^55Fe binding.
After 60 minutes at room temperature, the mixture was then washed 3 times on a 10-kDa membrane (Amicon YM-10; Millipore Corp.). Ngal loaded with iron-free enterochelin (rather than apo-Ngal) served as a positive control for iron capture. Ferric citrate (1 mM) or iron-loaded enterochelin (siderophore:Fe, […]) was used as a competitor of 55Fe binding.

[1] = Siderophore:iron binding assay (paper chromatography); settings: for Fe: Chromatography: 55Fe mobilised by compound on paper chromatogram developed in water, Yes/No
Source text: Siderophore:Iron Binding Assay. To test whether candidates bound iron directly, candidates (1 nmole) were mixed with ^55Fe (1 pmole), and then separated bound from free ^55Fe using paper chromatography developed in water.
Paper chromatography: The Fe-Siderophore Binding Assay: The concept underlying the Ngal-siderophore-Fe binding assay is that the urinary molecule provides an iron binding siderophore, and that the Ngal protein provides the carrier which retains the siderophore:Fe on the 10 KDa filter. […] To directly test this idea, we will mix 55Fe with HMDB compounds and then separate bound from free 55Fe by using paper chromatography. […] The assay also provides an independent means to follow the purification of the urinary siderophore. Using this assay, we can measure the specific activity of the fractions to identify the peak activity, as well as to compare the urinary fraction with enterochelin to establish relative units of activity.

[2] = apoNGAL 10 μM, 55Fe, compound 10 μM, pH 7.4, washed on 10 kDa filter

Row | Compound | NGAL: Chelator: Fe % Retention (NGAL; [2]) [%] | Fe: Chromatography [1] | NGAL-siderophore-Fe binding activity (in words) (NGAL) | iron chelating activity by paper chromatography (in words) [1] | NGAL: Chelator: Fe % Retention (NGAL; pH 7.4) [%]
1 | Nc1c(O)cccc1C(=O)CC(N)C(=O)O (racemic) [3-Hydroxy-DL-kynurenine] | 3 | Yes |  | active | 
2 | NCC(=O)c1ccc(O)c(O)c1 (racemic) [DL- Norepinephrine•HCl] | 5 | No |  |  | 
3 | O=C(O)CC(C(=O)O)C(O)C(=O)O (racemic) [Isocitric acid] |  | Yes |  |  | 
4 | CC(=O)NC(CC(=O)O)c1ccccc1 (racemic) [N-Acetyl-DL-Â- phenylalanine] | 5 | No |  |  | 
5 | COc1ccccc1OC [1,2-Dimethoxybenzene] | 3 | No |  |  | 
6 | O=C(O)c1cccc(O)c1O [2,3- Dihydroxybenzoic acid] | 35 | Yes | active | active | 
7 | O=C(O)c1cccnc1C(=O)O [2,3-Pyridine-dicarboxylic acid] | 6 | No |  |  | 
8 | O=C(O)c1ccc(O)c(O)c1 [3,4- Dihydroxybenzoic Acid] | 5 | Yes |  | active | 
9 | Nc1c(O)cccc1C(=O)O [3- Hydroxyanthranilic acid] | 10 | No |  |  | 
10 | NCC(=O)CCC(=O)O [5-Aminolevulinic acid] | 3 | No |  |  | 
11 | O=C(O)Cc1c[nH]c2ccc(O)cc12 [5-Hydroxy-indoleacetic acid] | 7 |  |  |  | 
12 | NCCc1cc(O)c(O)c(O)c1 [5-Hydroxydopamine] | 10 | No |  |  | 
13 | N[C@@H](Cc1c[nH]c2ccc(O)cc12)C(=O)O [5-Hydroxytryptophan] | 4 | No |  |  | 
14 | NCCc1cc(O)c(O)cc1O [6-Hydroxydopamine] | 4 | No |  |  | 
15 | O=C(O[C@@H]1Cc2c(O)cc(O)cc2O[C@@H]1c1cc(O)c(O)c(O)c1)c1cc(O)c(O)c(O)c1 [(−) Epigallocatechin gallate] | 45 | Yes | active | active | 
16 | NC(=O)NC1NC(=O)NC1=O (centres unmarked) [Allantoin] | 7 | No |  |  | 
17 | Oc1cccc(O)c1O [Benzene 1,2,3 Trial (Pyrogallol)] | 73 | Yes | highest activities |  | 
18 | C=CC1=C(C)/C(=C/c2[nH]c(Cc3[nH]c(/C=C4\NC(=O)C(C)=C4C=C)c(C)c3CCC(=O)O)c(CCC(=O)O)c2C)NC1=O [Bilirubin] | 3 | No |  |  | 
19 | O=C(/C=C/c1ccc(O)c(O)c1)OCCc1ccccc1 [Caffeic acid phenethyl ester] | 8 | No |  |  | 
20 | O=C([O-])CC(O)(CC(=O)[O-])C(=O)[O-].[Na+].[Na+].[Na+] [Citric acid sodium] | 6 | Yes |  | active | 
21 | COc1cc(/C=C/C(=O)O)ccc1O [Ferulic acid] | 3 | No |  |  | 
22 | N[C@@H](Cc1c[nH]c2ccccc12)C(=O)O [L-Tryptophan] | 5 | No |  |  | 
23 | O=c1c(O)c(-c2cc(O)c(O)c(O)c2)oc2cc(O)cc(O)c12 [Myricetin] | 28 | No | active |  | 
24 | NC(=O)C1=CN([C@@H]2O[C@H](COP(=O)(O)OP(=O)(O)OC[C@H]3O[C@@H](n4cnc5c(N)ncnc54)[C@H](OP(=O)(O)O)[C@@H]3O)[C@@H](O)[C@H]2O)C=CC1 [NADPH] | 3 | Yes |  |  | 
25 | NC(=O)c1ccc[n+]([C@@H]2O[C@H](COP(=O)(O)OP(=O)(O)OC[C@H]3O[C@@H](n4cnc5c(N)ncnc54)[C@H](OP(=O)(O)O)[C@@H]3O)[C@@H](O)[C@H]2O)c1 [NADP] | 7 | Yes |  | active | 
26 | O=C(O)c1cccnc1 [Nicotinic acid] | 3 | No |  |  | 
27 | C=CC1=C(C)c2cc3[nH]c(cc4nc(cc5[nH]c(cc1n2)c(C)c5CCC(=O)O)C(CCC(=O)O)=C4C)c(C)c3C=C [Protoporphyrin IX] | 3 |  |  |  | 
28 | O=C(O)c1ccccc1O [Salicylic acid] | 15 | No |  |  | 
29 | O=C(O)CCC(=O)O [Succinic acid] |  |  |  |  | 11
30 | β-Nicotinamide adenine |  |  |  | active | 

Now from value to compound, other results behind:

Row | NGAL: Chelator: Fe % Retention (NGAL; [2]) [%] | Fe: Chromatography [1] | NGAL-siderophore-Fe binding activity (in words) (NGAL) | Compound | iron chelating activity by paper chromatography (in words) [1] | NGAL: Chelator: Fe % Retention (NGAL; pH 7.4) [%]
31 | 12 | Yes |  | NC(Cc1ccc(O)c(O)c1)C(=O)O (racemic) [3,4-Dihydroxy-DL-phenylalanine] | active | 
32 | 7 | No |  | O=C1CC(C(=O)O)NC(=O)N1 (racemic) [DL- Dihdroorotic acid] |  | 
33 | 6 | No |  | COc1cccc(C(=O)O)c1OC [2,3 Dimethoxybenzoic acid] |  | 
34 | 6 | No |  | O=C(O)CNC(=O)c1ccco1 [2-Furoylglycine] |  | 
35 | 12 | No |  | Cc1ncc(CO)c(C(=O)O)c1O [4-Pyridoxic Acid] |  | 
36 | 9 | No |  | C=CC1=C(C)C(/C=c2/[nH]/c(=C\c3[nH]c(/C=C4\NC(=O)C(C)=C4C=C)c(C)c3CCC(=O)O)c(CCC(=O)O)c2C)NC1=O (centres unmarked) [Biliverdin HCl] |  | 
37 | 7 | No |  | O=C(O)/C=C/c1ccc(O)c(O)c1 [Caffeic acid] |  | 
38 | 6 | No |  | O=S1(=O)Oc2ccccc2O1 [Catechol cyclic sulfonate] |  | 
39 | 6 |  |  | O=C(/C=C/c1ccc(O)c(O)c1)O[C@@H]1C[C@](O)(C(=O)O)C[C@@H](O)[C@H]1O [Chlorogenic acid] |  | 
40 | 11 | No |  | O=C(O)/C=C(/CC(=O)O)C(=O)O [Cis-Aconitic acid] |  | 
41 | 10 | Yes |  | N[C@@H](Cc1ccc(O)c(O)c1)C(=O)O [Dihydroxyphenyl alanine (L-DOPA)] | active | 
42 | 24 | Yes | active | O=c1oc2c(O)c(O)cc3c(=O)oc4c(O)c(O)cc1c4c23 [Ellagic acid] | active | 
43 | 6 |  |  | Cc1cc2nc3c(=O)[nH]c(=O)nc-3n(C[C@H](O)[C@H](O)[C@H](O)COP(=O)(O)OP(=O)(O)OC[C@H]3O[C@@H](n4cnc5c(N)ncnc54)[C@H](O)[C@@H]3O)c2cc1C [FAD] |  | 
44 | 3 | No |  | Nc1nc2[nH]cc(CNc3ccc(C(=O)N[C@@H](CCC(=O)O)C(=O)O)cc3)nc-2c(=O)n1 [Folic acid] |  | 
45 | 6 | No |  | O=C(O)c1cc(O)ccc1O [Gentistic Acid] |  | 
46 | 4 | No |  | COc1ccccc1O [Guaiacol] |  | 
47 | 7 | No |  | O=C(O)Cc1cc(O)ccc1O [Homogentisic acid] |  | 
48 | 8 | No |  | N[C@@H](Cc1ccccc1)C(=O)O [L-Phenylalanine] |  | 
49 | 12 | No |  | NC(=O)c1ccc[n+]([C@@H]2O[C@H](COP(=O)(O)OP(=O)(O)OC[C@H]3O[C@@H](n4cnc5c(N)ncnc54)[C@H](O)[C@@H]3O)[C@@H](O)[C@H]2O)c1 [NAD] |  | 
50 | 13 | No |  | O=C(O)c1cc(=O)[nH]c(=O)[nH]1 [Orotic acid] |  | 
51 | 3 | No |  | NCc1[nH]cc(CCC(=O)O)c1CC(=O)O [Porphobilinogen] |  | 
52 | 1 | No |  | Cc1ncc(CO)c(C=O)c1O [Pyridoxal] |  | 
53 | 50 | Yes | active | O=C(/C=C/c1ccc(O)c(O)c1)O[C@H](Cc1ccc(O)c(O)c1)C(=O)O [Rosmarinic acid] | active | 
54 | 7 |  |  | O=c1cc[nH]c(=O)[nH]1 [Uracil] |  | 
